According to patent US12351574B2, “Selective ligands for modulation of GIRK channels” (Northeastern University, priority 2018, dated 2025):

Target: T1, GIRK1-S65A with GIRK4 (Homo sapiens, UniProt P48544+P48549, S65A)
T1 construct: expressed in transfected cells; host or cells: HEK293-T cells
T1 sequence (P48549 1-501 S65A): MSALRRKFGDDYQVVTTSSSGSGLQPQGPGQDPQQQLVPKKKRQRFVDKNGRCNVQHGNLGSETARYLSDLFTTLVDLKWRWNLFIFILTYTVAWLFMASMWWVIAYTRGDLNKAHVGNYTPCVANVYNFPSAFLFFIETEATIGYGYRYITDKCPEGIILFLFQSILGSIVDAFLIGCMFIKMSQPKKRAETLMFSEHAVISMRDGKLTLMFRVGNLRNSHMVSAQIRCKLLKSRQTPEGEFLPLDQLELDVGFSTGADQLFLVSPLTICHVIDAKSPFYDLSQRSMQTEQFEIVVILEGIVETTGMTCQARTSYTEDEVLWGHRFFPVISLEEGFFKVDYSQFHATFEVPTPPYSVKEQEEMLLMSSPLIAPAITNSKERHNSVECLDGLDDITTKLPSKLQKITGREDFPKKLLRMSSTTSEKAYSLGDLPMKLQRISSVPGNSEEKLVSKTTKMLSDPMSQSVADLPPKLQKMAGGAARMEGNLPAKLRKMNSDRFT
T1 sequence (P48544 1-419): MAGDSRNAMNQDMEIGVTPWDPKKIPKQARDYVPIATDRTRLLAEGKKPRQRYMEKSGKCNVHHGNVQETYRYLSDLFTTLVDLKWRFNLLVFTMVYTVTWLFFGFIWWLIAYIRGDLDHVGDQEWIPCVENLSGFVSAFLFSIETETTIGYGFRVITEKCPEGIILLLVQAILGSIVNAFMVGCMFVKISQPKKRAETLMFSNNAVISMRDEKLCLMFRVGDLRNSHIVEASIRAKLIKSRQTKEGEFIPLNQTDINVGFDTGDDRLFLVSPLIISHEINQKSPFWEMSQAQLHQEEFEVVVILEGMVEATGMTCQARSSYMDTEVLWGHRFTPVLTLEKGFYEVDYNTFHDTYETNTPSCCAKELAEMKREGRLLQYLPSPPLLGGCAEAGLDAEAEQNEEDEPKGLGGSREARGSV
Experiment: 5-ptaseOCRL current inhibition, GIRK1/4 channels containing GIRK1-S65A subunits
Assay type: cell-based
Excerpt: To identify changes in specific channel residue interactions with PIP2 upon ligand binding, the inventors carried out Principal Component Analysis (PCA) in the presence and absence of ML297 and GAT1508. The PCA analysis implicated changes in the slide (or interfacial) helix interactions with PIP2 upon ligand binding. Polar interactions could be formed between GIRK2^FD(Y76) and GIRK4^FD(Y71) with the P(4,5) of PIP2 when ML297 was bound to the same subunit (FIG. 39 top, FIG. 40). In contrast, when GAT1508 was bound this interaction was retained by GIRK2^FD but not GIRK4^FD (FIG. 39 bottom, FIG. 40). The corresponding GIRK1(S65) residue (FIG. 41, highlighted with vertical rectangle) could be serving the same role in stabilizing the phosphoinositol headgroup for interactions with non-ligand binding subunits. As polar residues, both Ser and Tyr could form H-bond interactions with PIP2. […]
Patch-clamp recording: Whole-cell currents were recorded with an Axopatch 200B amplifier (Molecular Devices) controlled via a USB-interface (National Instruments) using WinWCP software (University of Strathclyde). […] The barium-sensitive component of the current, observed when cells were perfused with the high-K^+ buffer, was analyzed and was determined by perfusing 5 mM BaCl2 in the high-K^+ buffer at the end of each experiment. […]

Compound | protection of current from 5-ptaseOCRL (in words)
Cc1cc(NC(=O)Nc2ccc(Br)s2)n(-c2ccccc2)n1 [GAT1508, 1-(5-bromothiophen-2-yl)-3-(3-methyl-1-phenyl-1H-pyrazol-5-yl)urea] | not protected
Cc1cc(NC(=O)Nc2ccc(F)c(F)c2)n(-c2ccccc2)n1 [ML297, reference compound] | not protected
